From patent publication US11795169B2, “MAP4K4 inhibitors” (IMPERIAL COLLEGE INNOVATIONS LIMITED, priority 2017, dated 2023)

Molecular target: human MAP4K4 kinase domain (Homo sapiens (Human), UniProt O95819)
Assay: MAP4K4 kinase activity, CisBio HTRF Transcreener ADP assay
Type: biochemical
Conditions: ATP at Km (10 μM), 0.5 nM kinase domain, 2 h; read-out: MAP4K4
From the text: Compounds of the present invention were screened for their inhibitory activity against MAP4K4, versus selected off-target hits found with early members of this chemical series. MAP4K4 kinase activity was monitored using the CisBio HTRF Transcreener ADP assay, acompetitive immunoassay with a reproducible Z′>0.6. In the detection step, endogenous ADP and d2-labeled ADP compete for binding an anti-ADP monoclonal antibody labelled with Eu^3+ cryptate. A ratiometric fluorescent read-out is used at 665 and 620 nm. […] Assays were run in Greiner low volume plates with a final reaction volume of 10 μl. The MAP4K4 inhibition data are provided in Table 33 below for selected compounds of the present invention. The data has been categorised based on the IC50 value of the compound as “A”, “B” or “C”.

human MAP4K4 kinase domain, sequence (O95819 25-289): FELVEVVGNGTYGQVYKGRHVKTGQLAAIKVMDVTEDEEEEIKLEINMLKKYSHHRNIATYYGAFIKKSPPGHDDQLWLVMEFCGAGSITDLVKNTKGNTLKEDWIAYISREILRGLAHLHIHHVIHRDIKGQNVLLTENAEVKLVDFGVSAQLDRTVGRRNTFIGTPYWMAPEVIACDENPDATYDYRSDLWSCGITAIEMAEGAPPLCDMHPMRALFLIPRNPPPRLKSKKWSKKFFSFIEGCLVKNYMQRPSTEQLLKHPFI

SMILES | IC50
COc1ccc(-n2cc(-c3ccc(OCCCN(C)C)cc3)c3nc[nH]c(=O)c32)cc1 [Ex-85] | ≤ 100 nM
CN1CC(COc2ccc(-c3cn(-c4ccccc4)c4nc[nH]c(=O)c34)cc2)C1 [Ex-67] | 100 to 1000 nM
CN1CCC(Oc2ccc(-c3cn(-c4ccccc4)c4c(=O)[nH]cnc34)cc2)CC1 [Ex-86] | ≤ 100 nM
O=c1[nH]cnc2c(-c3ccccc3)cn(-c3ccccc3)c12 [Ex-97] | ≤ 100 nM
O=c1[nH]cnc2c1c(-c1ccc(Cn3ccnc3)cc1)cn2-c1ccccc1 [Ex-13] | ≤ 100 nM
CN1CCN(CCCOc2ccc(-c3cn(-c4ccccc4)c4nc[nH]c(=O)c34)cc2)CC1 [Ex-35] | ≤ 100 nM
CN(C)CCCOc1ccc(-c2cn(-c3ccccc3)c3nc[nH]c(=O)c23)cc1 [Ex-26] | ≤ 100 nM
O=c1[nH]cnc2c1c(-c1c(F)cccc1F)cn2-c1ccccc1 [Ex-34] | 100 to 1000 nM
CN(C)CCN1CCN(c2ccc(-c3cn(-c4ccccc4)c4nc[nH]c(=O)c34)cc2)C1=O [Ex-33] | ≤ 100 nM
CN1CCN(CC(=O)Nc2ccc(-c3cn(-c4cccc(F)c4)c4nc[nH]c(=O)c34)cc2)CC1 [Ex-18] | ≤ 100 nM

Other lines, results leading:

IC50 | SMILES
100 to 1000 nM | O=C(O)c1ccc(-n2cc(-c3ccccc3)c3c(=O)[nH]cnc32)cc1 [Ex-1, 4-(4-Oxo-5-phenyl-3,4-dihydro-pyrrolo[2,3-d]pyrimidin-7-yl)-benzoic acid]
> 1000 nM | O=C(NCCO)c1cccc(-c2cn(-c3ccccc3)c3nc[nH]c(=O)c23)c1 [Ex-44]
≤ 100 nM | CN1CCN(c2ccc(-c3cn(-c4ccccc4)c4nc[nH]c(=O)c34)cc2)C1=O [Ex-29]
≤ 100 nM | CN(C)CCOc1ccc(-c2cn(-c3ccccc3)c3nc[nH]c(=O)c23)cc1 [Ex-15]
> 1000 nM | CN(C)CC(=O)Nc1cccc(-c2cn(-c3ccccc3)c3nc[nH]c(=O)c23)c1 [Ex-24]
100 to 1000 nM | O=c1[nH]cnc2c1c(-c1ccccc1Cl)cn2-c1ccccc1 [Ex-30]
100 to 1000 nM | O=c1[nH]cnc2c1c(-c1ccccc1F)cn2-c1ccccc1 [Ex-66]
